From ChEMBL document CHEMBL1201862, “PubChem BioAssay data set” (2004)
The source made the active and inactive calls.

Tests used:
Bcl-2-related protein A1 [1] = target: T1, Bcl-2-related protein A1 (Mus musculus, UniProt Q07440); test: Bfl-1 inhibitors blocking BH3 peptide binding, confirmation, biochemical, TR-FRET, mouse Bfl-1 (AID 621);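 further: TR-FRET binding of GST-Bfl-1 to FITC-labelled Bid peptide via terbium antibody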
T1 sequence (Q07440 whole entry): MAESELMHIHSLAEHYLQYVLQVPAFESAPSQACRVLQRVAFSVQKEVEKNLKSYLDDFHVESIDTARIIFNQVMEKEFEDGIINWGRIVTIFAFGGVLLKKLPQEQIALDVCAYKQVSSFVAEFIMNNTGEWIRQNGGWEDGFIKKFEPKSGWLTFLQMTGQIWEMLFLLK

Bcl-2-related protein A1 [2] = target: T1, Bcl-2-related protein A1; test: Bfl-1 binding inhibitors, SAR follow-up, biochemical, fluorescence polarization (AID 1070)
[3] = inhibitors of firefly luciferase expression or activity, dose response, H4 neuroglioma cells, luminescence (AID 1990); type: functional, cell-based
[4] = inhibitors of SNCA 5'UTR-driven reporter translation, confirmation, H4 neuroglioma cells, luminescence (AID 1988); type: functional, cell-based
[5] = Luminescence Cell-Based Dose Response HTS to Identify Inhibitors of 5'UTR Stem-Loop Driven Prion Protein mRNA Translation in H4 Neuroglioblastoma Cells. [Related pubchem assays: 1827 (Project Summary), 1813 (Primary HTS)]; type: functional
[6] = target: Sphingosine 1-phosphate receptor 2 (Homo sapiens, UniProt O95136); test: Dose Response Cell Based Assay for Antagonists of the S1P2 Receptor. [Related pubchem assays: 856, 736 ]; type: functional
Sequence of Sphingosine 1-phosphate receptor 2 (O95136 whole entry): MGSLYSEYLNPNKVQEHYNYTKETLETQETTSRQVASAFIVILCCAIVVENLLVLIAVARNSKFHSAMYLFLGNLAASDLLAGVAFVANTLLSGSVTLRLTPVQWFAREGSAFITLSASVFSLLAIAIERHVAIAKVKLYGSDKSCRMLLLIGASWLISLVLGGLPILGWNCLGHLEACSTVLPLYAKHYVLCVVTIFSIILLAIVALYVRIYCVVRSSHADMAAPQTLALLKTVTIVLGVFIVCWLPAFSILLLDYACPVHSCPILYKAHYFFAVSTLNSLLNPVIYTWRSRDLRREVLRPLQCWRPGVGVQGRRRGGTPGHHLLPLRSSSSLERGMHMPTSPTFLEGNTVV

Mucolipin-3 = target: T2, Mucolipin-3 (Homo sapiens, UniProt Q8TDD5); test: Dose response cell-based high-throughput screening assay for agonists of the transient receptor potential channel ML3 (TRPML3). [Related pubchem assays: 1526, 1424, 1448 ]; type: functional
T2 sequence (Q8TDD5 whole entry): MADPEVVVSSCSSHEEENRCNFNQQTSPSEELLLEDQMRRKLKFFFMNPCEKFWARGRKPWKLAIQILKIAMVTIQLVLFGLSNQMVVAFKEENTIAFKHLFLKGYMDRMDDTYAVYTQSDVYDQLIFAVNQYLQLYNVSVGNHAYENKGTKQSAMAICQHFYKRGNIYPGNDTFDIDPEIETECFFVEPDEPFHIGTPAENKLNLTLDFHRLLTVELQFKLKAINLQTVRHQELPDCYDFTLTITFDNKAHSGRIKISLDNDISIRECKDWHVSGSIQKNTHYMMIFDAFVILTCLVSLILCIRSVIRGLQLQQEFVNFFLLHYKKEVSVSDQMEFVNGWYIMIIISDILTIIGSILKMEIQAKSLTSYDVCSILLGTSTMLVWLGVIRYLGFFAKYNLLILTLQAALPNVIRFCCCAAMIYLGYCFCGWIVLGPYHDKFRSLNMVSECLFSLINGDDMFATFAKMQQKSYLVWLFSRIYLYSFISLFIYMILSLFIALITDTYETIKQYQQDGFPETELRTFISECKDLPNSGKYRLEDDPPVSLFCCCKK

Ion channel NompC = Ion channel NompC (Danio rerio, UniProt Q7T1G6); test: Fluorescence counterscreen assay for TRPML3 agonists: dose response cell-based high-throughput screening assay to identify agonists of the transient receptor potential channel N1 (TRPN1). [Related pubchem assays: 1526, 1424, 1448 ]; type: functional
Sequence of Ion channel NompC (Q7T1G6 whole entry): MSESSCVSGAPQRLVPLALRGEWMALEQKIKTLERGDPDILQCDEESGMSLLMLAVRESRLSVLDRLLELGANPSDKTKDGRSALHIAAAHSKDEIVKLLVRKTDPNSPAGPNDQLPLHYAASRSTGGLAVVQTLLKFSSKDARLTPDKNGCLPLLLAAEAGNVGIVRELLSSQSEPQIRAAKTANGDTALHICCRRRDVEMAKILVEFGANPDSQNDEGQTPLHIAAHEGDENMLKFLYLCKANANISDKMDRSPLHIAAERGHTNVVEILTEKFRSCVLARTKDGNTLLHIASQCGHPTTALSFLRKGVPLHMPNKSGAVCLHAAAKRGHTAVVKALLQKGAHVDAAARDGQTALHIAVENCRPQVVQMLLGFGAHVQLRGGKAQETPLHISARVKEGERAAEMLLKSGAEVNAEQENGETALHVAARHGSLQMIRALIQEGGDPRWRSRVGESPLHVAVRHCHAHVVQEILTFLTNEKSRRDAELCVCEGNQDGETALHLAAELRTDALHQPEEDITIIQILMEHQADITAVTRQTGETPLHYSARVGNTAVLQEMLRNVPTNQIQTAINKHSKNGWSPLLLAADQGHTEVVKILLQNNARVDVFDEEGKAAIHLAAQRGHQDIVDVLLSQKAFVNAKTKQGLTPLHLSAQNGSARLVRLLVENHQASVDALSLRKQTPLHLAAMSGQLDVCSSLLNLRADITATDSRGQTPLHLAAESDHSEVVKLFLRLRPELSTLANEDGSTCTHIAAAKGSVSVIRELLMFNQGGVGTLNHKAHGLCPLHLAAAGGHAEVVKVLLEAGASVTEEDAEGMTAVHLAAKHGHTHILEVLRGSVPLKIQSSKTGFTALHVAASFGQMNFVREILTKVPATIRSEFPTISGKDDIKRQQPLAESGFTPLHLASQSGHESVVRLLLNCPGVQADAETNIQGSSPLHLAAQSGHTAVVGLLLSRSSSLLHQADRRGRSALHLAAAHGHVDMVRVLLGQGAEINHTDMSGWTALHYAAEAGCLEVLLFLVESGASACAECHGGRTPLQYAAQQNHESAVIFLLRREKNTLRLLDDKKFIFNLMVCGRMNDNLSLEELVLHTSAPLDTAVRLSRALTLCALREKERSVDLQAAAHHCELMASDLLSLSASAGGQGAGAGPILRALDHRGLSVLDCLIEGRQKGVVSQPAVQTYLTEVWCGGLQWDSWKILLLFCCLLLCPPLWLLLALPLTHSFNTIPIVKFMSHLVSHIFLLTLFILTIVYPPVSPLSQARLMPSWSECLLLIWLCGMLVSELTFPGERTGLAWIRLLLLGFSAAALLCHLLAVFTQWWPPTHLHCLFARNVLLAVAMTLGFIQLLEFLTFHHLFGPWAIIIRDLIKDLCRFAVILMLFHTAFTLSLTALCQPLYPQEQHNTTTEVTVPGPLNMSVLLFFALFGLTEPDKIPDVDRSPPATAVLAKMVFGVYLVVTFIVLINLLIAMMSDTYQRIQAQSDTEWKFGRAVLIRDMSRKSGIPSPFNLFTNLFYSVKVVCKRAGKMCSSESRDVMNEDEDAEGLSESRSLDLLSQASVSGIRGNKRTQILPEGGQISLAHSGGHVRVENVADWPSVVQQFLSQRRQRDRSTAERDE

SMILES: Cc1cccc(N2CCN(C3=C(Cl)C(=O)N(c4ccc(Cl)c(Cl)c4)C3=O)CC2)c1
- IC50 (Bcl-2-related protein A1 [1]): > 100 µM (not active)
- IC50 (Bcl-2-related protein A1 [2]): > 100 µM (not active)

SMILES: O=C(c1cc(NC(=O)C23CC4CC(CC(C4)C2)C3)cc(NC(=O)C23CC4CC(CC(C4)C2)C3)c1)N1CCCCC1
- EC50 [3]: 17.1 µM (active)
- EC50 [4]: 12.2 µM (inconclusive)
- EC50 [5]: 15.7 µM (active)
- IC50 [6]: 0.977 µM (active)

SMILES: Clc1ccc(-n2nnc(-c3cnc4ccccc4c3)n2)cn1
- IC50 (Bcl-2-related protein A1 [1]): > 100 µM (not active)
- IC50 (Bcl-2-related protein A1 [2]): > 100 µM (not active)

SMILES: CN(CC(=O)ONC(=N)c1cccc([N+](=O)[O-])c1)S(=O)(=O)c1ccccc1
- EC50 (Mucolipin-3): 12.4 µM (not active)
- EC50 (Ion channel NompC): > 29.9 µM (not active)
